# Legend:
# Format in all cases: functional
# CAKI-1 = assay: Growth inhibition of human Caki1 cells after 48 hrs by sulforhodamine B assay; conditions: CAKI-1, 48 h
# NCI-H226 = assay: Growth inhibition of human NCI-H226 cells after 48 hrs by sulforhodamine B assay; conditions: NCI-H226, 48 h
# COLO 205 = assay: Growth inhibition of human COLO205 cells after 48 hrs by sulforhodamine B assay; conditions: COLO 205, 48 h
# NCI-H322M = assay: Growth inhibition of human NCI-H322M cells after 48 hrs by sulforhodamine B assay
# OVCAR-3 = assay: Growth inhibition of human OVCAR3 cells after 48 hrs by sulforhodamine B assay; conditions: OVCAR-3, 48 h
# HCT-15 = assay: Growth inhibition of human HCT15 cells after 48 hrs by sulforhodamine B assay; conditions: HCT-15, 48 h
# NCI/ADR-RES = assay: Growth inhibition of human NCI/ADR-RES cells after 48 hrs by sulforhodamine B assay
# M14 = assay: Growth inhibition of human M14 cells after 48 hrs by sulforhodamine B assay; conditions: M14, 48 h
# SK-MEL-5 = assay: Growth inhibition of human SK-MEL-5 cells after 48 hrs by sulforhodamine B assay; conditions: SK-MEL-5, 48 h
# MDA-MB-468 = assay: Growth inhibition of human MDA-MB-468 cells after 48 hrs by sulforhodamine B assay; conditions: MDA-MB-468, 48 h
# BT-549 = assay: Growth inhibition of human BT549 cells after 48 hrs by sulforhodamine B assay; conditions: BT-549, 48 h
# T47D = assay: Growth inhibition of human T47D cells after 48 hrs by sulforhodamine B assay
# KM12 = assay: Growth inhibition of human KM12 cells after 48 hrs by sulforhodamine B assay; conditions: KM12, 48 h
# HCC 2998 = assay: Growth inhibition of human HCC2998 cells after 48 hrs by sulforhodamine B assay; conditions: HCC 2998, 48 h
# TK-10 = assay: Growth inhibition of human TK10 cells after 48 hrs by sulforhodamine B assay; conditions: TK-10, 48 h
# OVCAR-4 = assay: Growth inhibition of human OVCAR4 cells after 48 hrs by sulforhodamine B assay; conditions: OVCAR-4, 48 h
# HOP-62 = assay: Growth inhibition of human HOP62 cells after 48 hrs by sulforhodamine B assay; conditions: HOP-62, 48 h
# ACHN = assay: Growth inhibition of human ACHN cells after 48 hrs by sulforhodamine B assay
# A498 = assay: Growth inhibition of human A498 cells after 48 hrs by sulforhodamine B assay; conditions: A498, 48 h
# LOX IMVI = assay: Growth inhibition of human LOXIMVI cells after 48 hrs by sulforhodamine B assay
# MOLT-4 = assay: Growth inhibition of human MOLT4 cells after 48 hrs by sulforhodamine B assay; conditions: MOLT-4, 48 h
# UACC-62 = assay: Growth inhibition of human UACC62 cells after 48 hrs by sulforhodamine B assay; conditions: UACC-62, 48 h
# HT-29 = assay: Growth inhibition of human HT-29 cells after 48 hrs by sulforhodamine B assay; conditions: HT-29, 48 h
# MDA-MB-231 = assay: Growth inhibition of human MDA-MB-231/ATCC cells after 48 hrs by sulforhodamine B assay; conditions: MDA-MB-231, 48 h
# SN12C = assay: Growth inhibition of human SN12C cells after 48 hrs by sulforhodamine B assay
# RXF 393 = assay: Growth inhibition of human RXF393 cells after 48 hrs by sulforhodamine B assay; conditions: RXF 393, 48 h
# NCI-H522 = assay: Growth inhibition of human NCI-H522 cells after 48 hrs by sulforhodamine B assay; conditions: NCI-H522, 48 h
# U-251 = assay: Growth inhibition of human U251 cells after 48 hrs by sulforhodamine B assay; conditions: U-251, 48 h
# SK-MEL-2 = assay: Growth inhibition of human SK-MEL-2 cells after 48 hrs by sulforhodamine B assay; conditions: SK-MEL-2, 48 h
# SW-620 = assay: Growth inhibition of human SW620 cells after 48 hrs by sulforhodamine B assay; conditions: SW-620, 48 h
# IGROV-1 = assay: Growth inhibition of human IGROV1 cells after 48 hrs by sulforhodamine B assay; conditions: IGROV-1, 48 h
# 786-0 = assay: Growth inhibition of human 786-0 cells after 48 hrs by sulforhodamine B assay; conditions: 786-0, 48 h
# [1] = read-out: pLC50 (the source's name) (converted)
smiles,measurement,setting,value
COc1cc(/C=C/c2cc(F)c3c(c2)C[C@@H]2C(C)(C)[C@H](O)CC[C@@]2(C)O3)cc(O)c1C/C=C(\C)CCC=C(C)C,GI50,CAKI-1,10.2 µM
same,LC50,CAKI-1,53.7 µM
same,TGI,CAKI-1; read-out: pTGI (converted),23.4 µM
same,GI50,NCI-H226,18.6 µM
same,LC50,NCI-H226,> 100 µM
same,TGI,NCI-H226; read-out: pTGI (converted),45.7 µM
same,GI50,COLO 205,12 µM
same,LC50,COLO 205,55 µM
same,TGI,COLO 205; read-out: pTGI (converted),25.7 µM
same,GI50,NCI-H322M,34.7 µM
same,LC50,NCI-H322M,> 100 µM
same,TGI,NCI-H322M; read-out: pTGI (converted),> 100 µM
same,GI50,OVCAR-3,12 µM
same,LC50,OVCAR-3,58.9 µM
same,TGI,OVCAR-3; read-out: pTGI (converted),26.9 µM
same,GI50,HCT-15,12.3 µM
same,LC50,HCT-15,66.1 µM
same,TGI,HCT-15; read-out: pTGI (converted),28.8 µM
same,GI50,NCI/ADR-RES,3.89 µM
same,LC50,NCI/ADR-RES,50.1 µM
same,TGI,NCI/ADR-RES; read-out: pTGI (converted),14.1 µM
same,GI50,M14,12.9 µM
same,LC50,M14,57.5 µM
same,TGI,M14; read-out: pTGI (converted),26.9 µM
same,GI50,SK-MEL-5,7.08 µM
same,LC50,SK-MEL-5,44.7 µM
same,TGI,SK-MEL-5; read-out: pTGI (converted),20 µM
same,GI50,MDA-MB-468,6.61 µM
same,LC50,MDA-MB-468,45.7 µM
same,TGI,MDA-MB-468; read-out: pTGI (converted),20 µM
same,GI50,BT-549,9.12 µM
same,LC50,BT-549,> 100 µM
same,TGI,BT-549; read-out: pTGI (converted),37.2 µM
same,GI50,T47D,12.3 µM
same,LC50,T47D,77.6 µM
same,TGI,T47D; read-out: pTGI (converted),30.9 µM
same,GI50,KM12,1.91 µM
same,LC50,KM12,8.32 µM
same,TGI,KM12; read-out: pTGI (converted),3.98 µM
same,GI50,HCC 2998,12.9 µM
same,LC50,HCC 2998,56.2 µM
same,TGI,HCC 2998; read-out: pTGI (converted),26.9 µM
same,GI50,TK-10,15.8 µM
same,LC50,TK-10,67.6 µM
same,TGI,TK-10; read-out: pTGI (converted),32.4 µM
same,GI50,OVCAR-4,12.6 µM
same,LC50,OVCAR-4,> 100 µM
same,TGI,OVCAR-4; read-out: pTGI (converted),37.2 µM
same,GI50,HOP-62,7.41 µM
same,LC50,HOP-62,44.7 µM
same,TGI,HOP-62; read-out: pTGI (converted),20 µM
same,GI50,ACHN,11.7 µM
same,LC50,ACHN,58.9 µM
same,TGI,ACHN; read-out: pTGI (converted),26.3 µM
same,GI50,A498,28.8 µM
same,LC50,A498,> 100 µM
same,TGI,A498; read-out: pTGI (converted),> 100 µM
same,GI50,LOX IMVI,1.38 µM
same,LC50,LOX IMVI,6.17 µM
same,TGI,LOX IMVI; read-out: pTGI (converted),2.88 µM
same,GI50,MOLT-4,2.04 µM
same,LC50,MOLT-4,> 100 µM
same,TGI,MOLT-4; read-out: pTGI (converted),6.46 µM
same,GI50,UACC-62,14.1 µM
same,LC50 (50% lethal concentration),UACC-62,63.1 µM
same,TGI,UACC-62; read-out: pTGI (converted),29.5 µM
same,GI50,HT-29,2.57 µM
same,LC50 (concentration killing 50% of cells),HT-29,41.7 µM
same,TGI,HT-29; read-out: pTGI (converted),11 µM
same,GI50,MDA-MB-231,6.61 µM
same,CC50,MDA-MB-231; [1],97.7 µM
same,TGI,MDA-MB-231; read-out: pTGI (converted),26.9 µM
same,GI50,SN12C,14.5 µM
same,LC50,SN12C,> 100 µM
same,TGI,SN12C; read-out: pTGI (converted),39.8 µM
same,GI50,RXF 393,1.82 µM
same,LC50 (50% lethal concentration),RXF 393,10 µM
same,TGI,RXF 393; read-out: pTGI (converted),4.27 µM
same,GI50,NCI-H522,2.19 µM
same,LC50,NCI-H522,30.9 µM
same,TGI,NCI-H522; read-out: pTGI (converted),6.92 µM
same,GI50,U-251,2.04 µM
same,LC50,U-251,15.8 µM
same,TGI,U-251; read-out: pTGI (converted),5.01 µM
same,GI50,SK-MEL-2,15.5 µM
same,LC50,SK-MEL-2,75.9 µM
same,TGI,SK-MEL-2; read-out: pTGI (converted),33.9 µM
same,GI50,SW-620,3.02 µM
same,LC50,SW-620,33.1 µM
same,TGI,SW-620; read-out: pTGI (converted),9.12 µM
same,GI50,IGROV-1,2.95 µM
same,LC50,IGROV-1,53.7 µM
same,TGI,IGROV-1; read-out: pTGI (converted),7.94 µM
same,GI50,786-0,3.31 µM
same,CC50,786-0; [1],38.9 µM
same,TGI,786-0; read-out: pTGI (converted),10.2 µM

# — ChEMBL document CHEMBL1926642, “Relevance of the C-5 position to schweinfurthin induced cytotoxicity” (2011)
